Laboratory results published in patent US12433293B2, “Herbicidal compositions” (BAYER AKTIENGESELLSCHAFT, priority 2019, dated 2025).

System: harmful plant species
Assay: Specific trial examples: synergistic effect (Δ) of herbicidal binary compositions applied by the post-emergence method, observed vs Colby expected value (Tables 3.1-3.4)
Format: in vivo
[1] = 1 g a.i./ha, post-emergence (Z25)
[2] = 1 g a.i./ha, post-emergence (Z26)
[3] = 4 g a.i./ha, post-emergence (Table 3.2, Z25)
[4] = 5 g a.i./ha, post-emergence (Table 3.2, Z25)
[5] = 16 g a.i./ha, post-emergence (Table 3.2, Z25)

## C=C[C@]1(C(=O)N[C@H]2C=C[C@@H](C(=O)OC)C2)CC(c2cc(F)cc(F)c2)=NO1 [Compound A1, methyl (1S,4R)-4-[[[(5S)-3-(3,5-difluorophenyl)-5-vinyl-4H-1,2-oxazol-5-yl]carbonyl]amino]cyclopent-2-ene-1-carboxylate]
1 g a.i./ha, post-emergence
  Herbicidal action 14 DAT [%] against Lolium rigidum (resistant biotype): 20%
  Herbicidal action 14 DAT [%] against Phalaris minor: 30%
  Herbicidal action 14 DAT [%] against Veronica hederifolia: 30%
  Herbicidal action 28 DAT [%] against Bromus sterilis: 30%
  Herbicidal action 28 DAT [%] against Lolium rigidum (resistant biotype): 20%
  Herbicidal action 28 DAT [%] against Poa annua L.: 30%
1 g a.i./ha, post-emergence (Table 3.2, Z25)
  Herbicidal action 14 DAT [%] against Phalaris minor: 30%
[1]
  Herbicidal action 14 DAT [%] against Centaurea cyanus: 10%
  Herbicidal action 28 DAT [%] against Centaurea cyanus: 10%
  Herbicidal action 28 DAT [%] against Lolium rigidum: 30%
  Herbicidal action 28 DAT [%] against Matricaria inodora: 50%
[2]
  Herbicidal action 14 DAT [%] against Centaurea cyanus: 10%
  Herbicidal action 28 DAT [%] against Centaurea cyanus: 10%
  Herbicidal action 28 DAT [%] against Lolium rigidum: 30%
  Herbicidal action 28 DAT [%] against Matricaria inodora: 50%
  Herbicidal action 28 DAT [%] against Poa annua L.: 30%
1.7 g a.i./ha, post-emergence
  Herbicidal action 21 DAT [%] against Setaria viridis: 85%
4 g a.i./ha, post-emergence
  Herbicidal action 14 DAT [%] against Alopecurus myosuroides: 80%
  Herbicidal action 14 DAT [%] against Centaurea cyanus: 30%
  Herbicidal action 14 DAT [%] against Lolium rigidum: 70%
  Herbicidal action 14 DAT [%] against Matricaria inodora: 70%
  Herbicidal action 14 DAT [%] against Phalaris minor: 75%
  Herbicidal action 14 DAT [%] against Poa annua L.: 80%
  Herbicidal action 28 DAT [%] against Alopecurus myosuroides: 85%
  Herbicidal action 28 DAT [%] against Centaurea cyanus: 30%
  Herbicidal action 28 DAT [%] against Lolium rigidum: 75%
  Herbicidal action 28 DAT [%] against Phalaris minor: 70%
  Herbicidal action 28 DAT [%] against Poa annua L.: 85%
  Herbicidal action 28 DAT [%] against Veronica hederifolia: 40%
[3]
  Herbicidal action 14 DAT [%] against Phalaris minor: 75%
  Herbicidal action 28 DAT [%] against Lolium rigidum: 75%
  Herbicidal action 28 DAT [%] against Phalaris minor: 70%
  Herbicidal action 28 DAT [%] against Poa annua L.: 85%
4 g a.i./ha, post-emergence (Z25)
  Herbicidal action 28 DAT [%] against Lolium rigidum (resistant biotype): 40%
4 g a.i./ha, post-emergence (Z26)
  Herbicidal action 28 DAT [%] against Lolium rigidum (resistant biotype): 40%
5 g a.i./ha, post-emergence
  Herbicidal action 21 DAT [%] against Abutilon theophrasti: 60%
  Herbicidal action 21 DAT [%] against Ipomoea purpurea: 80%
  Herbicidal action 21 DAT [%] against Kochia Scoparia: 75%
  Herbicidal action 21 DAT [%] against Setaria viridis: 90%
[4]
  Herbicidal action 21 DAT [%] against Abutilon theophrasti: 60%
  Herbicidal action 21 DAT [%] against Kochia Scoparia: 75%
5 g a.i./ha, post-emergence (Z25)
  Herbicidal action 21 DAT [%] against Amaranthus palmeri: 30%
5 g a.i./ha, post-emergence (Z26)
  Herbicidal action 21 DAT [%] against Amaranthus palmeri: 30%
15 g a.i./ha, post-emergence
  Herbicidal action 21 DAT [%] against Amaranthus palmeri: 40%
  Herbicidal action 21 DAT [%] against Ipomoea purpurea: 80%
  Herbicidal action 21 DAT [%] against Kochia Scoparia: 80%
15 g a.i./ha, post-emergence (Table 3.2, Z25)
  Herbicidal action 21 DAT [%] against Kochia Scoparia: 80%
15 g a.i./ha, post-emergence (Z26)
  Herbicidal action 21 DAT [%] against Kochia Scoparia: 80%
16 g a.i./ha, post-emergence
  Herbicidal action 14 DAT [%] against Alopecurus myosuroides: 85%
  Herbicidal action 14 DAT [%] against Centaurea cyanus: 40%
  Herbicidal action 14 DAT [%] against Lolium rigidum: 80%
  Herbicidal action 14 DAT [%] against Poa annua L.: 80%
  Herbicidal action 14 DAT [%] against Veronica hederifolia: 70%
  Herbicidal action 28 DAT [%] against Centaurea cyanus: 50%
  Herbicidal action 28 DAT [%] against Matricaria inodora: 85%
  Herbicidal action 28 DAT [%] against Phalaris minor: 85%
[5]
  Herbicidal action 28 DAT [%] against Matricaria inodora: 85%
  Herbicidal action 28 DAT [%] against Phalaris minor: 85%
16 g a.i./ha, post-emergence (Z26)
  Herbicidal action 28 DAT [%] against Phalaris minor: 85%
45 g a.i./ha, post-emergence
  Herbicidal action 21 DAT [%] against Kochia Scoparia: 85%
100 g a.i./ha, post-emergence
  Herbicidal action 16 DAT [%] against Richardia scabra: 48%
  Herbicidal action 42 DAT [%] against Geranium dissectum: 17%
  Herbicidal action 42 DAT [%] against Malva pusilla: 0%
  Herbicidal action 45 DAT [%] against Amaranthus tuberculatus: 57%
  Herbicidal action 45 DAT [%] against Ipomoea ssp: 57%
  Herbicidal action 45 DAT [%] against Lysimachia nummularia: 25%

## O=C(Nc1ccc(F)cc1F)c1cccnc1Oc1cccc(C(F)(F)F)c1 [(B2.18) Diflufenican]
30 g a.i./ha, post-emergence
  Herbicidal action 14 DAT [%] against Alopecurus myosuroides: 20%
  Herbicidal action 14 DAT [%] against Phalaris minor: 20%
  Herbicidal action 21 DAT [%] against Abutilon theophrasti: 20%
  Herbicidal action 21 DAT [%] against Ipomoea purpurea: 30%
  Herbicidal action 21 DAT [%] against Kochia Scoparia: 10%
  Herbicidal action 21 DAT [%] against Setaria viridis: 10%
  Herbicidal action 28 DAT [%] against Phalaris minor: 10%
  Herbicidal action 28 DAT [%] against Poa annua L.: 10%
  Herbicidal action 28 DAT [%] against Veronica hederifolia: 20%
90 g a.i./ha, post-emergence
  Herbicidal action 14 DAT [%] against Alopecurus myosuroides: 20%
  Herbicidal action 14 DAT [%] against Lolium rigidum: 20%
  Herbicidal action 14 DAT [%] against Poa annua L.: 20%
  Herbicidal action 21 DAT [%] against Abutilon theophrasti: 20%
  Herbicidal action 21 DAT [%] against Kochia Scoparia: 20%
  Herbicidal action 21 DAT [%] against Setaria viridis: 20%
  Herbicidal action 28 DAT [%] against Phalaris minor: 10%
  Herbicidal action 28 DAT [%] against Poa annua L.: 20%
  Herbicidal action 28 DAT [%] against Veronica hederifolia: 20%
270 g a.i./ha, post-emergence
  Herbicidal action 14 DAT [%] against Lolium rigidum: 20%
  Herbicidal action 14 DAT [%] against Matricaria inodora: 30%
  Herbicidal action 14 DAT [%] against Phalaris minor: 30%
  Herbicidal action 14 DAT [%] against Veronica hederifolia: 30%
  Herbicidal action 21 DAT [%] against Abutilon theophrasti: 30%
  Herbicidal action 21 DAT [%] against Ipomoea purpurea: 60%
  Herbicidal action 21 DAT [%] against Kochia Scoparia: 25%
  Herbicidal action 28 DAT [%] against Alopecurus myosuroides: 20%
  Herbicidal action 28 DAT [%] against Lolium rigidum: 30%
  Herbicidal action 28 DAT [%] against Matricaria inodora: 20%
  Herbicidal action 28 DAT [%] against Phalaris minor: 30%
  Herbicidal action 28 DAT [%] against Poa annua L.: 30%
  Herbicidal action 28 DAT [%] against Veronica hederifolia: 30%

## O=C(O)CNCP(=O)(O)O [(B7.5) Glyphosate]
50 g a.i./ha, post-emergence
  Herbicidal action 28 DAT [%] against Centaurea cyanus: 10%
  Herbicidal action 28 DAT [%] against Phalaris minor: 30%
50 g a.i./ha, post-emergence (Z26)
  Herbicidal action 21 DAT [%] against Amaranthus palmeri: 60%
150 g a.i./ha, post-emergence
  Herbicidal action 14 DAT [%] against Centaurea cyanus: 50%
  Herbicidal action 28 DAT [%] against Bromus sterilis: 80%
  Herbicidal action 28 DAT [%] against Centaurea cyanus: 40%
  Herbicidal action 28 DAT [%] against Lolium rigidum: 30%
  Herbicidal action 28 DAT [%] against Matricaria inodora: 70%
150 g a.i./ha, post-emergence (Z26)
  Herbicidal action 21 DAT [%] against Kochia Scoparia: 20%
450 g a.i./ha, post-emergence
  Herbicidal action 14 DAT [%] against Centaurea cyanus: 60%
  Herbicidal action 28 DAT [%] against Bromus sterilis: 90%
  Herbicidal action 28 DAT [%] against Centaurea cyanus: 60%
  Herbicidal action 28 DAT [%] against Lolium rigidum (resistant biotype): 70%
  Herbicidal action 28 DAT [%] against Poa annua L.: 85%
720 g a.i./ha, post-emergence
  Herbicidal action 16 DAT [%] against Richardia scabra: 62%
  Herbicidal action 42 DAT [%] against Geranium dissectum: 50%
  Herbicidal action 42 DAT [%] against Malva pusilla: 0%
  Herbicidal action 45 DAT [%] against Amaranthus tuberculatus: 15%
  Herbicidal action 45 DAT [%] against Ipomoea ssp: 0%
  Herbicidal action 45 DAT [%] against Lysimachia nummularia: 7%

## CP(=O)(O)CCC(N)C(=O)O (stereo not drawn) [(B7.4) Glufosinate]
50 g a.i./ha, post-emergence
  Herbicidal action 21 DAT [%] against Abutilon theophrasti: 50%
  Herbicidal action 21 DAT [%] against Kochia Scoparia: 10%
50 g a.i./ha, post-emergence (Z25)
  Herbicidal action 21 DAT [%] against Amaranthus palmeri: 35%
60 g a.i./ha, post-emergence
  Herbicidal action 14 DAT [%] against Phalaris minor: 20%
  Herbicidal action 14 DAT [%] against Veronica hederifolia: 50%
  Herbicidal action 28 DAT [%] against Phalaris minor: 10%
150 g a.i./ha, post-emergence
  Herbicidal action 21 DAT [%] against Amaranthus palmeri: 90%
  Herbicidal action 21 DAT [%] against Kochia Scoparia: 50%
180 g a.i./ha, post-emergence
  Herbicidal action 14 DAT [%] against Centaurea cyanus: 60%
  Herbicidal action 14 DAT [%] against Lolium rigidum: 40%
  Herbicidal action 28 DAT [%] against Centaurea cyanus: 30%
  Herbicidal action 28 DAT [%] against Matricaria inodora: 60%
  Herbicidal action 28 DAT [%] against Phalaris minor: 30%
  Herbicidal action 28 DAT [%] against Poa annua L.: 20%
540 g a.i./ha, post-emergence
  Herbicidal action 14 DAT [%] against Centaurea cyanus: 85%
  Herbicidal action 14 DAT [%] against Lolium rigidum (resistant biotype): 50%
  Herbicidal action 14 DAT [%] against Phalaris minor: 60%
  Herbicidal action 28 DAT [%] against Centaurea cyanus: 70%
  Herbicidal action 28 DAT [%] against Lolium rigidum: 40%
  Herbicidal action 28 DAT [%] against Lolium rigidum (resistant biotype): 30%
  Herbicidal action 28 DAT [%] against Phalaris minor: 40%
